*1 amine or outer side, *2 acyl side, *3 side chain or, on linkers, in order; H or OH if unused. Where a SMILES comes first, the peptide text is derived from it. Bridges are numbered along the chain shown (N, C = ends). Roman numbers before positions name the chains, in order. [ ]: non-standard residue; d: D form. The star is where a group is joined. X4 = CC(=O)N[C@@H](CSC1CC(=O)N(CCCCCC(=O)[*:2])C1=O)C(=O)NCCOCCOCCOCCOCCOCCOCCC(=O)[*:1]; Exatecan = CC[C@@]1(O)C(=O)OCc2c1cc1n(c2=O)Cc2c-1nc1cc(F)c(C)c3c1c2[C@@H](N*)CC3; Hexanoyl(6-succinimido-3yl) = O=C1CC([*:1])C(=O)N1CCCCCC(=O)[*:2]; PEG6 = NCCOCCOCCOCCOCCOCCOCCC(=O)O; NHCH2OCH2CO = O=C(COCN[*:1])[*:2]
Experiments:
Format in all cases: cell-based
NCI-H69 = assay: Cell killing in NCI-H69 by CGT (CellTiter-Glo); details: NCI-H69, 96 h
Experimental: Approximately 5 µL of the PDC was added to the corresponding wells of the plate, and compared with DMSO (control, without the PDC of the present application), PTX, MMAE, and Dxd wells. The final concentration of DMSO in each well was 0.2%; • (5) The cells were incubated in a 5% CO2 incubator at 37°C for 96 h; • (6) The cell culture plate was equilibrated to room temperature, and 50 µL of CellTiter-Glo® Reagent was added to each well; • (7) The plate was placed on a shaker for 2 min to ensure complete cell lysis; • (8) After mixing, the plate was placed at room temperature to react for 10 min. The fluorescence value (in RLU) was read when the signal became stable. • c) Data analysis • (1) The inhibition (Inh %) relative to the DMSO control was calculated as follows: Inhibition (Inh%)= 100 -(RLU of compound - RLU of DMSO control)/ (RLU of DMSO control - RLU of blank)*100% • (2) The data were analyzed using Graphpad 5.0 software. A 4-parameter equation was fitted to generate a concentration-response curve to obtain the IC50. Table 3: Test Results of Cell Killing in NCI-H69

SSTR2 = biological target: T1, SSTR2 (Homo sapiens, UniProt P30874); assay: SSTR2 cAMP test; details: for activity at 50 µM: Max Dose 50000 nM; for EC50: SSTR2/CHO cells, Forskolin, cAMP activation rate
T1 construct: expressed in transfected cells; host or cells: CHO cells (SSTR2/CHO)
T1 sequence (P30874 whole entry): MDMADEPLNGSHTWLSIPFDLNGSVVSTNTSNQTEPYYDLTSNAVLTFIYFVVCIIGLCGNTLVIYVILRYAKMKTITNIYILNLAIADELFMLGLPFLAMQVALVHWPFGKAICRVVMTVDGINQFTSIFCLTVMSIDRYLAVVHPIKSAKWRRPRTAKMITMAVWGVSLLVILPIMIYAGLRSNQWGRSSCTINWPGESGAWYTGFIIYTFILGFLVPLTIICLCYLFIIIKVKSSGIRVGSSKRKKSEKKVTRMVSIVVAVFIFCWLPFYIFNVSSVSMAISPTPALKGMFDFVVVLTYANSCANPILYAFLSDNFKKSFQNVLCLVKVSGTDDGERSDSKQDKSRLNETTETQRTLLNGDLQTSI
Experimental: • 1) Compound preparation: The test compound was diluted by 4-fold with DMSO to obtain 10 different concentration points. Approximately 100 nL of the diluted compound was then transferred to a cell reaction plate and centrifuged for later use. • 2) Cell preparation:The cultured SSTR2/CHO cells were collected into a sterile centrifuge tube, and the supernatant was discarded by centrifugation. • 3) The cells were resuspended in assay buffer, counted using a Vi-cell counter, and diluted with assay buffer. • 4) Approximately 100 nL of 100 µM Forskolin was transferred into the cell reaction plate using an Echo and centrifuged. Then, 10 µL of assay buffer containing the cells was added and incubated. • 5) Approximately 10 µL of cAMP detection reagent solution was added to the corresponding wells of the cell reaction plate, and incubated at room temperature in the dark. • 6) The plate was read using a microplate reader. The final value was determined as the ratio of OD at 665 nm to that at 615 nm. • 7) The cAMP value was calculated for each well: Activity (%)=(signal value of sample well - mean signal value of low-signal control wells)/ (mean signal value of high-signal control wells - mean signal value of low-signal control wells). Fitting was performed using the "Nonlinear regression (curve fit)-log(agonist) vs. response -- Variable slope" model in GraphPad Prism 5.0, with the log-transformed compound concentration on the x-axis and cAMP activation rate on the y-axis. The EC50 value of the sample was calculated accordingly. Table 2: SSTR2 cAMP Test Results

HL-60 = assay: Cell killing in HL-60 by CCK-8; details: HL-60, 48 h
Experimental: • a) Cell line: HL-60 • b) Procedure • (1) Normally cultured HL-60 cells in the logarithmic growth phase were centrifuged at 800 rpm for 5 min to discard the supernatant. Approximately 3 mL of normal medium was added to resuspend the cell pellet by gently pipetting up and down. The cells were then counted using a cell counter and inoculated onto a 96-well plate. • (2) Sample solutions with different concentration gradients were prepared. Approximately 10 µL of each solution was added to the 96-well plate, with 3 to 6 replicate wells for each concentration, and incubated in a 5% CO2 incubator at 37°C for 48 h. • (3) CCK-8 was equilibrated to room temperature before use, and 10 µL of CCK-8 solution was added to each well. • (4) The plate was incubated in the incubator for 0.5-4 h in the dark, with the incubation time depending on experimental conditions such as cell type and density. • (5) The absorbance was measured at 450 nm using a microplate reader. • c) Data analysis Cell viability = [(As−Ab)/(Ac−Ab)] × 100% [formula] Inhibition% = [(Ac−As)/(Ac−Ab)] × 100% [formula] • As: absorbance of sample well (containing cells + medium + CCK-8 solution + drug solution); • Ac: absorbance of control well (containing cells + medium + CCK-8 solution); • Ab: absorbance of blank well (containing medium + CCK-8 solution); • The results were processed and analyzed using Excel and Graphpad Prism to obtain the IC50. Table 4: Test Results of Cell Killing in HL-60 for 48 h

SMILES	IC50 (NCI-H69) [nM]	activity at 50 µM (SSTR2) [%]	EC50 (SSTR2) [nM]	Bottom (Inhibition at Lowest Point) (HL-60)	IC50 (HL-60) [nM]	Top (Inhibition at Highest Point) (HL-60)
CC[C@@]1(O)C(=O)OCc2c1cc1n(c2=O)Cc2c-1nc1cc(F)c(C)c3c1c2[C@@H](NC(=O)COCNC(=O)CNC(=O)[C@H](Cc1ccccc1)NC(=O)CNC(=O)CNC(=O)CCCCCN1C(=O)CC(SC[C@H](NC(C)=O)C(=O)NCCOCCOCCOCCOCCOCCOCCC(=O)NCCCC[C@H](NC(=O)CCOCCOCCOCCOCCOCCOCCNC(=O)[C@H](CSC2CC(=O)N(CCCCCC(=O)NCC(=O)NCC(=O)N[C@@H](Cc4ccccc4)C(=O)NCC(=O)NCOCC(=O)N[C@H]4CCc5c(C)c(F)cc6nc7c(c4c56)Cn4c-7cc5c(c4=O)COC(=O)[C@]5(O)CC)C2=O)NC(C)=O)C(=O)N[C@@H](CCCCNC(=O)CCOCCOCCOCCOCCOCCOCCNC(=O)[C@H](CSC2CC(=O)N(CCCCCC(=O)NCC(=O)NCC(=O)N[C@@H](Cc4ccccc4)C(=O)NCC(=O)NCOCC(=O)N[C@H]4CCc5c(C)c(F)cc6nc7c(c4c56)Cn4c-7cc5c(c4=O)COC(=O)[C@]5(O)CC)C2=O)NC(C)=O)C(=O)NCCOCCOCCOCCOCCOCCOCCC(=O)N[C@@H](CCCNC(=N)N)C(=O)N[C@@H](CCCNC(=N)N)C(=O)N[C@@H](CC(C)C)C(=O)N[C@@H](Cc2ccccc2)C(=O)N[C@H]2CSSC[C@@H](C(=O)N[C@H](C(=O)N[C@@H](Cc4c[nH]c5ccccc45)C(=O)N[C@@H](CCCNC(=N)N)C(=O)N[C@@H](CC(=O)O)C(N)=O)[C@@H](C)O)NC(=O)[C@H]([C@@H](C)O)NC(=O)[C@H](CCCCN)NC(=O)[C@@H](Cc4c[nH]c5ccccc45)NC(=O)[C@H](Cc4ccc(O)cc4)NC2=O)C1=O)CC3 (stereo partly drawn) [Example 7, Ac-Cys(MC-Gly-Gly-Phe-Gly-NH-CH2-Dxd)-PEG6-Lys(Ac-Cys(MC-Gly-Gly-Phe-Gly-NH-CH2-Dxd)-PEG6)-Lys(Ac-Cys(MC-Gly-Gly-Phe-Gly-NH-CH2-Dxd)-PEG6)-PEG6-Arg-Arg-Leu-Phe-[Cys-Tyr-D-Trp-Lys-Thr-Cys]-Thr-Trp-Arg-Asp-NH2] (I: Ac-C[PEG6]KK[PEG6]RRLFCY[dW]KTCTWRD-NH2 / II: GGFG[NHCH2OCH2CO]-Exatecan / III: GGFG[NHCH2OCH2CO]-Exatecan / IV: GGFG[NHCH2OCH2CO]-Exatecan; linker I:1-III:N via Hexanoyl(6-succinimido-3yl); linker I:3-II:N, I:4-IV:N via X4; disulfide I:10-I:15)	122	54.4	23400	–	–	–
CC[C@H](C)[C@@H]([C@@H](CC(=O)N1CCC[C@H]1[C@H](OC)[C@@H](C)C(=O)N[C@H](C)[C@@H](O)c1ccccc1)OC)N(C)C(=O)[C@@H](NC(=O)[C@H](C(C)C)N(C)C(=O)OCc1ccc(NC(=O)[C@H](CCCNC(N)=O)NC(=O)[C@@H](NC(=O)CCCCCN2C(=O)CC(SC[C@H](NC(C)=O)C(=O)NCCOCCOCC(=O)N[C@@H](CCCNC(=N)N)C(=O)N[C@@H](CCCNC(=N)N)C(=O)N[C@@H](CC(C)C)C(=O)N[C@@H](Cc3ccccc3)C(=O)N[C@H]3CSSC[C@@H](C(=O)N[C@H](C(=O)N[C@@H](Cc4c[nH]c5ccccc45)C(=O)N[C@@H](CCCNC(=N)N)C(=O)N[C@@H](CC(=O)O)C(N)=O)[C@@H](C)O)NC(=O)[C@H]([C@@H](C)O)NC(=O)[C@H](CCCCN)NC(=O)[C@@H](Cc4c[nH]c5ccccc45)NC(=O)[C@H](Cc4ccc(O)cc4)NC3=O)C2=O)C(C)C)cc1)C(C)C (single isomer, unassigned) [Example 10, Ac-Cys(MC-Val-Cit-PABC-MMAE)-AEEA-Arg-Arg-Leu-Phe-[Cys-Tyr-D-Trp-Lys-Thr-Cys]-Thr-Trp-Arg-Asp-NH2]	–	–	–	-2.25	187	90.08
CC[C@@]1(O)C(=O)OCc2c1cc1n(c2=O)Cc2c-1nc1cc(F)c(C)c3c1c2[C@@H](NC(=O)COCNC(=O)CNC(=O)[C@H](Cc1ccccc1)NC(=O)CNC(=O)CNC(=O)CCCCCN1C(=O)CC(SC[C@H](NC(=O)CCOCCOCCOCCOCCOCCOCCN)C(=O)NCCOCCOCCOCCOCCOCCOCCC(=O)N[C@@H](CCCNC(=N)N)C(=O)N[C@@H](CCCNC(=N)N)C(=O)N[C@@H](CC(C)C)C(=O)N[C@@H](Cc2ccccc2)C(=O)N[C@H]2CSSC[C@@H](C(=O)N[C@H](C(=O)N[C@@H](Cc4c[nH]c5ccccc45)C(=O)N[C@@H](CCCNC(=N)N)C(=O)N[C@@H](CC(=O)O)C(N)=O)[C@@H](C)O)NC(=O)[C@H]([C@@H](C)O)NC(=O)[C@H](CCCCN)NC(=O)[C@@H](Cc4c[nH]c5ccccc45)NC(=O)[C@H](Cc4ccc(O)cc4)NC2=O)C1=O)CC3 (stereo partly drawn) [Example 5, PEG6-Cys(MC-Gly-Gly-Phe-Gly-NH-CH2-Dxd)-PEG6-Arg-Arg-Leu-Phe-[Cys-Tyr-D-Trp-Lys-Thr-Cys]-Thr-Trp-Arg-Asp-NH2] (I: H-[PEG6]C[PEG6]RRLFCY[dW]KTCTWRD-NH2 / II: GGFG[NHCH2OCH2CO]-Exatecan; linker I:2-II:N via Hexanoyl(6-succinimido-3yl); disulfide I:8-I:13)	316	83.5	155	–	–	–

Reference: patent EP4772530A1, “PEPTIDE TARGETING SOMATOSTATIN RECEPTOR, DRUG CONJUGATE AND USE THEREOF” (Mainline Biosciences (Shanghai) Co., Ltd., priority 2023, dated 2025)
